Data taken from patent US20260191815A1, “THIOACRYLAMIDE DERIVATIVES FOR USE IN THE PREVENTION OR TREATMENT OF LIVER FIBROSIS” (CMR CUREDIAB METABOLIC RESEARCH GMBH, priority 2022, published 2026).

Experiments:
[1] = tested on: 3D primary human hepatocyte (PHH) spheroid NASH model; experiment: Intracellular lipid accumulation (AdipoRed) in 3D PHH:NPC NASH spheroids; assay type: cell-based; conditions: NASH medium; for lipid contents of spheroids compared to NASH (100%): 1 week of exposure
Description: Experiments were conducted using HepaPredict's (HepaPredict AB, Sweden) 3D primary human hepatocyte (PHH) spheroid NASH model (e.g. as published in Bell et al. Sci Rep. 2016 May 4; 6:25187. doi: 10.1038/srep25187).
Cryopreserved primary human hepatocytes were obtained from BioIVT (USA) and nonparenchymal cells (NPC) from LifeNetHealth (USA). After thawing, PHH-NPC cocultures were seeded in a multi-well 96-well Elplasia plate (Corning) in William's E medium containing 11 mM glucose, 10 μg/mL (control) or 10 mg/mL insulin (NASH), 100 nM dexamethasone, 5.5 mg/L transferrin, 6.7 μg/L selenite, 2 mM L-glutamine, 1 U/mL penicillin, 0.1 mg/mL streptomycin, and 10% fetal bovine serum (FBS). PHH-NPC cocultures were seeded in ratio of 6:1 PHH:NPC with a total of 40,000 PHH per well. When spheroids were formed, FBS was phased out and spheroids were maintained in either the same media to provide the negative control (“Ctrl”), or with addition of albumin-conjugated free fatty acid (FFA), comprised of 240 μM palmitic acid and 240 μM oleic acid (NASH medium) to provide the positive control (“NASH”). Compound exposure was conducted in NASH medium with medium exchanges every 48-72 hours.
For cell viability and intracellular lipid accumulation assays, cells were seeded as previously reported (Bell et al., SciRep, 2016). In short, PHH and NPC were seeded as a single spheroid per well into 96-well ultra-low attachment (ULA) plates (Corning) at 1,500 viable cells per well with the PHH:NPC ratio 6:1.
After spheroid formation, cells were exposed to up to five different concentrations of the candidate molecules HK1 or HK3 (0.1 μM, 0.3 μM, 1 μM, 3 μM, and 10 μM) with or without FFA in the culture medium. All compound stocks and dilutions were prepared in DMSO, aliquoted and stored protected from light at −20° C. Fresh dosing solutions were prepared from these aliquots on each dosing day. All endpoints were evaluated after 14 days of exposure.
For statistical comparisons, normalized values for a given condition were compared to either the corresponding vehicle (DMSO) controls or the respective FFA (NASH) controls at the same time point using heteroscedastic unpaired two-tailed t-tests.
Intracellular lipid accumulation was quantified using the AdipoRed Adipogenesis Assay Kit (Lonza) following the manufacturer's instructions. […] Afterwards, spheroids were disrupted by vigorous pipetting and fluorescence was measured (Ex/Em: 485/572) using a SpectraMax iD5 multi-mode microplate reader (Molecular Devices).
To evaluate whether the two candidate compounds HK1 and HK3 impacted hepatic steatosis, we assessed their impact on intracellular triglyceride accumulation after 1 week of exposure. […]

[2] = tested on: caspase 3/7 activity in primary human hepatocytes; experiment: Caspase 3/7 activity provoked by palmitate in primary human hepatocytes; assay type: cell-based; conditions: Hepatocyte, 10 μM pre-treatment + palmitate 200 μM, read-out: caspase 3/7 activity, % of control
Description: The potential protective effect of HK1 and HK3 on caspase 3/7 activity in HepG2 cells and primary human hepatocytes was analysed.
HepG2 cells were obtained from Merck (Darmstadt, Germany) (ECACC-certified), while primary human hepatocytes were obtained from Thermo Fisher Scientific (Waltham, MA, USA), and all were cultured according to the instructions of the respective manufacturers. During experiments, cells were cultured in serum-free medium. Unless otherwise stated, cells were treated with 200 μM bovine serum albumin (BSA)-conjugated palmitate (Cayman Chemicals, Ann Arbor, MI) alone or in combination with 10 μM HK1 (Taros Chemicals GmbH & Co. KG, Dortmund, Germany) and HK3 (Taros Chemicals GmbH & Co. KG, Dortmund, Germany) 30 min prior to palmitate exposure for 24 hours. The vehicle BSA was used according to the palmitate concentration and DMSO according to HK1 and HK3 concentration. 2 μM Staurosporine (Abcam, Cambridge, GB) was used as a positive and 100 μM Caspase 3/7 inhibitor (CI) (Cayman Chemicals) as a negative control.
Differences were analysed by one-way ANOVA.

For `Cc1cc(NC(=S)/C(C#N)=C(\O)C2CC2)ccc1F` [HK1, 2-Cyano-3-cyclopropyl-N-(4-fluoro-3-methyl-phenyl)-3-hydroxy-thioacrylamide], the “lipid contents of spheroids compared to NASH (100%)” value (shortened to “lipid contents … (100%)”) ([1]; 1 μM) was 79%, the “lipid contents … (100%)” value ([1]; 3 μM) was 81% and the “lipid contents … (100%)” value ([1]; 10 μM) was 62%. The activity at 10 µM [2] was 85.6%.

For `Cc1cc(NC(=S)/C(C#N)=C(\O)C2CC2)ccc1[N+](=O)[O-]` [HK3, 2-Cyano-3-cyclopropyl-3-hydroxy-N-(3-methyl-4-nitro-phenyl)-thioacrylamide], the “accumulation of intracellular lipids compared to the positive control” value ([1]; across 1 μM, 3 μM and 10 μM, 1 week) was 46-49% and the activity at 10 µM [2] was 41.7%.
